Paper PMC7649969, “Pyrazolyl-pyrimidones inhibit the function of human solute carrier protein SLC11A2 (hDMT1) by metal chelation” (RSC Medicinal Chemistry, 2020)
Read-outs that look alike come from different tables or passages of the source.

Legend:
hDMT1 = biological target: T1, hDMT1 (Homo sapiens, UniProt P49281); test: 55Fe2+ uptake by HEK293T cells transiently transfected with hDMT1; assay type: cell-based; parameters: DsRED; expressed in transfected cells; host or cells: HEK293T (ATCC CRL-3216), transient transfection with Lipofectamine 2000; conditions: for inhibition of 55Fe2+ uptake by hDMT1: compound 10 μM, 55Fe2+ 1 μM, pH 5.5, HEK293T; for IC50: HEK293T transiently transfected with hDMT1, 55Fe2+ 1 μM, pH 5.5
T1 sequence (P49281 1-568): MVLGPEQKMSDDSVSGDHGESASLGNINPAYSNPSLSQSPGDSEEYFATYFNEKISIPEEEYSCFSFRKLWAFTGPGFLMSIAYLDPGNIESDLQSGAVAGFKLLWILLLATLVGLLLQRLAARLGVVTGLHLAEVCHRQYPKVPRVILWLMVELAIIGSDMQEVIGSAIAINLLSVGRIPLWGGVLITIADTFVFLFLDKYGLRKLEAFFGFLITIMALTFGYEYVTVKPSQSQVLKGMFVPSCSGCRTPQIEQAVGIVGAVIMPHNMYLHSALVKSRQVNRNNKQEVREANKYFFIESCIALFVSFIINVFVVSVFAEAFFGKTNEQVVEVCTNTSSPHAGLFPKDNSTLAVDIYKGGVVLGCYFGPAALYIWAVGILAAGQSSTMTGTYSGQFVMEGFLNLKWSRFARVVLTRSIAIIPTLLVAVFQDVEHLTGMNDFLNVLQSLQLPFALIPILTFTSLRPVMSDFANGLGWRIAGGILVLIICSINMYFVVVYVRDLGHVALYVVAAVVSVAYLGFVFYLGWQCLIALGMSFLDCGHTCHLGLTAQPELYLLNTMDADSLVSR
From the text: Complex formation with Fe^2+ should result in non-selective inhibition of different metal transporters. To test this hypothesis, we investigated whether human SLC39A8 (hZIP8), a transporter of Zn^2+ and Fe^2+ unrelated to SLC11 family, might also be inhibited by our hDMT1 inhibitors. Both SLCs can be tested by inhibition of radioactive iron uptake into HEK293 cells expressing the transporter, at pH 5.5 for hDMT1 and at pH 7.4 for hZIP8.
Fig. 5 Cross reactivity of hDMT1 inhibitors over the functional activity of the divalent metal transporter hZIP8. (a) ^55Fe^2+ uptake (1 μM) by HEK293T cells (source: American Type Culture Collection, catalog no. CRL-3216) transiently transfected with the empty vector (Ev), hDMT1 or hZIP8. Uptake assay was performed at the optimal pH for the functional activity of each transporter (pH 5.5 and pH 7.4 respectively). The indicated compounds (10 μM) were pre-incubated for 5 min, and then, for 15 min with both compound and ^55Fe^2+. Measured ^55Fe^2+ was corrected by subtracting the background iron uptake measured in non-transfected cells. The data was normalized to the Fe^2+ uptake measured in the presence of DMSO (0.1%) and represented as mean ± SD (N = 5–16; obtained from 2 independent experiments). IC50 determination for pyrazolyl-pyrimidone 13 (b) and bipyridine (c) in HEK293T cells transiently transfected with hDMT1 (left panels) or hZIP8 (right panels). ^55Fe^2+ uptake (1 μM) was measured in the presence of the indicated compound concentration ranges, and the measurements were corrected by subtracting the background iron uptake measured in non-transfected cells. IC50 values were calculated by fitting the data to a sigmoidal 4-parameter equation. Representative experiments are depicted, while IC50 values were calculated as mean ± SD of 3 different experiments.
Chemicals and reagents were purchased from Merck, except where indicated otherwise.
Cell Culture. Cellular experiments where conducted either with a HEK293 cell line (ATCC) stably expressing DsRED-hDMT1 plasmid or HEK293T cells (ATCC) transiently transfected with DsRED-hZIP8 or DsRED-hDMT1 plasmids. The cell line stably expressing hDMT1 was generated as described in previous works1,2. In both cases, cells were cultured in Dulbecco´s modified Eagle´s medium (DMEM) supplemented with 10 % foetal bovine serum (FBS), 10 mM HEPES and 1 mM Na-pyruvate under standard cell culture conditions (37 °C, 95 % humidity and air containing 5 % CO2). When culturing the hDMT1 overexpressing cell line, to maintain stable the expression of the exogenous plasmid, culture media was also supplemented with […] geneticin (Life Technologies). […]
Radiolabelled iron uptake assay. Cells were seeded in clear bottom, white-well, poly-D-lysine coated 96-well plates (Corning). HEK293 cells stably over-expressing hDMT1 were seeded 24 hours before the experiment at a density of 50,000 cells/well. HEK293T cells were seeded at 30,000 cells/well 48 hours before the experiment, and 24 hours after were transfected […]
using Lipofectamine 2000 (Life technologies) as described in the manufacturer’s protocol.
Before the uptake assay, culture media was aspirated and the cells were washed with the uptake solution (140 mM NaCl, 2.5 mM KCl, 1 mM CaCl2, 1 mM MgCl2, 1.2 mM K2HPO4, 10 mM glucose, 5 mM HEPES, 5 mM MES, pH 7.4). To determine the iron uptake, the cells were incubated for 15 min at room temperature (RT) with uptake solution (pH 5.5) supplemented with 100 µM Ascorbic acid, and the indicated amount of non-radioactive Ferrous iron (Fe2+) and radiolabelled 55Fe2+ (American Radiolabelled) (0.5 µCi/mL). To stop the uptake process, the solution containing the radiotracer was removed and cells were washed with ice-cold uptake solution (pH 7.5). To determine the iron accumulated within the cells during the incubation time, the scintillation cocktail Mycrosinth 20 (PerkinElmer) was added to each well, and the cells were incubated during 1 hour at RT under constant agitation. […]

[1] = acid-base titration with NaOH; assay type: physicochemical; conditions: Milli-Q water with 10% DMSO, ~2 mM compound
Procedure: Fig. 6 (a) Acid–base titration of 3, 5, 13 and neutral and basic forms of 3, 5, 13. (20 μmol of compound in 10 mL (10% DMSO, ∼2 mM), 3 and 5 were acidified with HCl (50 μmol)). (b) Acid-base equilibria for inhibitors 3, 5 and 13 highlighting potentially metal chelating nitrogen atoms in red. (c) TMAP of our inhibitors combined with 169 pyrazolyl-pyrimidones and 1717 pyrazolyl-pyridines found in ChEMBL, color coded by source: cyan = pyrazolyl-pyridines from ChEMBL, blue = pyrazolyl-pyrimidones from ChEMBL, red = this work. Insert: Close-up view around pyrazolyl-pyrimidones color-coded by target class: red = transporter, cyan = enzyme, magenta = unclassified protein, grey = unclassified target. The interactive TMAP including further color-codes (target classes, QED, etc.) is accessible at:; http://tm.gdb.tools/dmt1_inhibitors/pyrimidones_pyridines/ […]
Milli-Q water, 1 mL DMSO and 0.5 mL HCl 0.1 M (Final concentration of 2 mM). Compound
13 (HCl salt, 200 µL, 0.1 M in DMSO) was dissolved in 0.8 mL DMSO and […] Milli-Q
water. Then, a solution of 0.1 M NaOH was added by steps of 2 µL with a Dosimat plus
(Metrohm, Zofingen, Switzerland) and pH was measured using a 692 pH/ion meter (Metrohm).

SMILES	inhibition of 55Fe2+ uptake by hDMT1 (hDMT1)	pKa ([1]; read-out: pKa1)	pKa ([1]; read-out: pKa2)	IC50 (hDMT1) [µM]
N=C(N)SCc1cccc2c1oc1c(CSC(=N)N)cccc12 [Compound 1, reference compound]	only inhibited hDMT1	–	–	–
Cc1nn(-c2ccccn2)c(O)c1C(=O)Nc1cccc(C(F)(F)F)c1 [Compound 3, reference compound]	inhibited both transporters	3.3	6.7	–
c1ccc(-c2ccccn2)nc1 [bipyridine]	inhibited both transporters	–	–	~6.5

More lines, main results first:

inhibition of 55Fe2+ uptake by hDMT1 (hDMT1)	pKa ([1]; read-out: pKa1)	pKa ([1]; read-out: pKa2)	SMILES	IC50 (hDMT1) [µM]
inhibited both transporters	3.6	6.5	Cc1cc(O)nc(-n2nc(C)cc2C)n1 [Compound 5]	–
inhibited both transporters	3.3	7	Cc1cc(=O)[nH]c(-n2nc3c(c2C)CCCC3)n1 [Compound 13]	~1.1
